From US20240270762A1, “PENICILLIN-BINDING PROTEIN INHIBITORS” (priority 2021, published 2024)
pEC50: −log10 of the molar value. In brackets after ≈: the same amount, converted by molar mass.

Legend:
[1] = molecular target: T1, PBP2 from Neisseria gonorrhoeae (FA19) (Neisseria gonorrhoeae, UniProt P08149); test: Bocillin-FL fluorescence polarization competition binding, N. gonorrhoeae PBP2; settings: fluorescence polarization competition binding assay using Bocillin-FL, read-out: N. gonorrhoeae PBP2 Potency
T1 construct: made in house
Description: To determine the ability of boronic acid-based test PBP inhibitors to bind Penicillin Binding Proteins (PBPs), Bocillin-FL (fluorescently-labeled penicillin V; ThermoFisher Scientific) was used in a fluorescence polarization (FP) competition binding assay to assess inhibitor binding to PBP3 from Escherichia coli (K-12), PBP3 from Pseudomonas aeruginosa (PAO1), PBP1a and PBP3 from Acinetobacter baumannii (ATCC 19606), and PBP2 from Neisseria gonorrhoeae (FA19). PBPs were cloned and purified as described previously (E. coli PBP3, King, D. T, et al., ACS Infectious Diseases 2015, 1, 175-184; P. aeruginosa PBP3, Han et. al., PNAS 2010, 107 (51), 22002-22007; A. baumannii PBPs, Penwell et. al., Antimicrob. Agents Chemother. 2015, 59 (3), 1680-1689; N. gonorrhoeae PBP2, Singh et. al., J. Biol. Chem. 2019, 294 (38), 14020-14032). To establish assay conditions for competition binding, enzyme titration/saturation binding experiments were initially performed. Bocillin-FL was prepared at 0.2 μM in a buffer comprised of 50 mM Hepes (pH 8.0), 300 mM NaCl and 10% (v/v) glycerol for reactions with E. coli, P. aeruginosa and N. gonorrhoeae PBPs, and 25 mM Tris (pH 8.0), 200 mM NaCl, 10% (v/v) glycerol and 0.005% (v/v) Tween 20 for reactions with A. baumannii PBPs. Saturation binding was performed by mixing 40 μl of PBP solutions ranging in concentrations from 0-24 μM with 40 μl of the 0.2 μM Bocillin-FL solution, in individual wells of a black 384-well microplate. FP was measured immediately upon mixing (Excitation, 490 nm; Emission, 520 nm; g-factor, 0.96), using a Cytation3 (BioTek) microplate reader and measured continuously for up to 120 minutes. […] The competition binding assay (80 μl final volume) was validated using beta-lactams and PBPs at final concentrations of: 1.5 μM for E. coli PBP3; 0.75 μM for P. aeruginosa PBP3; 1 μM for A. baumannii PBP1a; 0.2 μM for A. baumannii PBP3; and 0.25 μM for N. gonorrhoeae PBP2. Bocillin-FL was at 0.1 μM (0.05 μM with A. baumannii PBP1a) and beta-lactam concentrations ranged from 0-1,000 μM. E. coli PBP3 was incubated with increasing concentrations of ampicillin in a black 384-well microplate (Corning) for 30 minutes. P. aeruginosa PBP3 was incubated for 15 minutes with aztreonam, whereas A. baumannii PBP1a and PBP3 were incubated for 15 minutes with meropenem, and then Bocillin-FL was added followed immediately by the FP measurement for up to 60 minutes. […] The beta-lactam potency was reported as the concentration of beta-lactam required to reduce the amount of PBP bound-Bocillin-FL by 50% (EC50). […] Binding assays for boronic acid PBP inhibitors were performed in an identical fashion for the respective PBPs.

E. coli 901C = test: microbe, parasite or virus in culture; format: cell-based; settings: Escherichia coli, read-out: MIC E. coli 901C
N. gonorrhoeae WHO K = test: Liquid broth MIC in Fastidious broth; settings: Neisseria gonorrhoeae, read-out: Minimum Inhibitory Concentration (MIC), N. gonorrhoeae WHO K
Description: Liquid broth-based assays were used for antibacterial testing of PBP inhibitors in Neisseria gonorrhoeae. Briefly, cryo-preserved bacterial cultures of clinical strains were streaked for isolation on Chocolate Agar (72 g/L (2×) GC Agar Base (BD #228950) and 2% (2×) Hemoglobin was autoclaved at 121° C. for 20 minutes to sterilize. Once cooled to ˜50° C. the 2×GC Agar Base and 2× Hemoglobin solutions are combined and 1% IsoVitaleX Enrichment (BD #211876) was added to the solution). Strains were incubated at 36° C. and 5% CO2 to allow growth of colonies, 24 hours before inoculum preparation. 2-fold serial dilutions of test compounds were conducted in a 96 well plate with a final volume of 75 μL per well at 2-fold the final desired concentration in Fastidious broth (Remel #R07664). For preparation of assay inoculum, a direct suspension was prepared by aseptically swabbing 10-15 colonies from agar plates into culture tubes containing 2 mL of fresh sterile saline. After the dilution plates were set up, direct suspensions were then diluted in a cuvette containing sterile saline and the optical density was measured at 600 nm. Inocula were diluted such that 75 μL of this culture in Fastidious broth results in a starting bacterial concentration of 5×10^5 CFU/mL when added to the dilution plates. The plates were incubated for ˜24 hours at 36° C. and 5% CO2.

T1 sequence (P08149 whole entry): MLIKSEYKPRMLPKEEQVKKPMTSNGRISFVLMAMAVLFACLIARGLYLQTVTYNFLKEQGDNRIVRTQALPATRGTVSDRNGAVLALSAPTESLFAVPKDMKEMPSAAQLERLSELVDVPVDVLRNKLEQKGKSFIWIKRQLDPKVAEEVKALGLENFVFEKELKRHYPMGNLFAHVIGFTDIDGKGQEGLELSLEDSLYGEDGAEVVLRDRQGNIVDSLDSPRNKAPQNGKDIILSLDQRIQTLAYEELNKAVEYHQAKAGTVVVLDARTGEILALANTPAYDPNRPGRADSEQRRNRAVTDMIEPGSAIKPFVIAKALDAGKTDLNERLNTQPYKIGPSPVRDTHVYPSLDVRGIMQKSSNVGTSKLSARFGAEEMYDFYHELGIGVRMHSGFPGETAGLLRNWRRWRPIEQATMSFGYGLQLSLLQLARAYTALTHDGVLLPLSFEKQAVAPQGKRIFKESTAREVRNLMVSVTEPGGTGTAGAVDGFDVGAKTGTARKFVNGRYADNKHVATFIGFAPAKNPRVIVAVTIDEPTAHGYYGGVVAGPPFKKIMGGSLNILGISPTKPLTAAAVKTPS

CS(=O)(=O)N1CCN(C(=O)NC(C(=O)N[C@H]2Cc3cccc(C(=O)O)c3OB2O)c2ccc(P(=O)(O)O)c(F)c2)C1=O (stereo partly drawn) [Example 12, (3R)-3-(2-(3-fluoro-4-phosphonophenyl)-2-(3-(methylsulfonyl)-2-oxoimidazolidine-1-carboxamido)acetamido)-2-hydroxy-3,4-dihydro-2H-benzo[e][1,2]oxaborinine-8-carboxylic acid]
pEC50 [1]: > 5.00
MIC (E. coli 901C): < 1 µg/mL
MIC (N. gonorrhoeae WHO K): < 1 µg/mL

NC(C(=O)N[C@H]1Cc2ccc(F)c(C(=O)O)c2OB1O)c1ccc(P(=O)(O)O)cc1 (stereo partly drawn) [Example 14, (3R)-3-(2-amino-2-(4-phosphonophenyl)acetamido)-7-fluoro-2-hydroxy-3,4-dihydro-2H-benzo[e][1,2]oxaborinine-8-carboxylic acid]
pEC50 [1]: 3.60 to 4.30
MIC (E. coli 901C): > 128 µg/mL
MIC (N. gonorrhoeae WHO K): > 64 µg/mL

CS(=O)(=O)N1CCN(C(=O)N[C@@H](C(=O)N[C@H]2Cc3ccc(F)c(C(=O)O)c3OB2O)c2ccc(P(=O)(O)O)c(F)c2F)C1=O [Example 16, (R)-3-((R)-2-(2,3-difluoro-4-phosphonophenyl)-2-(3-(methylsulfonyl)-2-oxoimidazolidine-1-carboxamido)acetamido)-7-fluoro-2-hydroxy-3,4-dihydro-2H-benzo[e][1,2]oxaborinine-8-carboxylic acid]
pEC50 [1]: > 5.00
MIC (E. coli 901C): < 1 µg/mL
MIC (N. gonorrhoeae WHO K): < 1 µg/mL

CS(=O)(=O)N1CCN(C(=O)NC(C(=O)N[C@H]2Cc3cccc(C(=O)O)c3OB2O)c2ccc(P(=O)(O)O)c(O)c2)C1=O (stereo partly drawn) [Example 17, (3R)-2-hydroxy-3-(2-(3-hydroxy-4-phosphonophenyl)-2-(3-(methylsulfonyl)-2-oxoimidazolidine-1-carboxamido)acetamido)-3,4-dihydro-2H-benzo[e][1,2]oxaborinine-8-carboxylic acid]
pEC50 [1]: > 5.00
MIC (E. coli 901C): < 1 µg/mL
MIC (N. gonorrhoeae WHO K): < 1 µg/mL

CCN1CCN(C(=O)NC(C(=O)N[C@H]2Cc3cccc(C(=O)O)c3OB2O)c2ccc(CP(=O)(O)O)cc2)C(=O)C1=O (stereo partly drawn) [Example 20, (3R)-3-(2-(4-ethyl-2,3-dioxopiperazine-1-carboxamido)-2-(4-(phosphonomethyl)phenyl)acetamido)-2-hydroxy-3,4-dihydro-2H-benzo[e][1,2]oxaborinine-8-carboxylic acid]
pEC50 [1]: > 5.00
MIC (E. coli 901C): < 1 µg/mL
MIC (N. gonorrhoeae WHO K): 1 to 2 µg/mL (≈ 1.66 to 3.32 µM)

CCN1CCN(C(=O)NC(C(=O)N[C@H]2Cc3cccc(C(=O)O)c3OB2O)c2ccc(P(=O)(O)O)c(O)c2)C(=O)C1=O (stereo partly drawn) [Example 21, (3R)-3-(2-(4-ethyl-2,3-dioxopiperazine-1-carboxamido)-2-(3-hydroxy-4-phosphonophenyl)acetamido)-2-hydroxy-3,4-dihydro-2H-benzo[e][1,2]oxaborinine-8-carboxylic acid]
pEC50 [1]: > 5.00
MIC (E. coli 901C): < 1 µg/mL
MIC (N. gonorrhoeae WHO K): < 1 µg/mL

CCN1CCN(C(=O)NC(C(=O)N[C@H]2Cc3cccc(C(=O)O)c3OB2O)c2cccc(CP(=O)(O)O)c2)C(=O)C1=O (stereo partly drawn) [Example 22, (3R)-3-(2-(4-ethyl-2,3-dioxopiperazine-1-carboxamido)-2-(3-(phosphonomethyl)phenyl)acetamido)-2-hydroxy-3,4-dihydro-2H-benzo[e][1,2]oxaborinine-8-carboxylic acid]
pEC50 [1]: > 5.00
MIC (E. coli 901C): < 1 µg/mL
MIC (N. gonorrhoeae WHO K): 4 to 8 µg/mL (≈ 6.64 to 13.3 µM)

CCN1CCN(C(=O)NC(C(=O)N[C@H]2Cc3cccc(C(=O)O)c3OB2O)c2c(F)cc(P(=O)(O)O)cc2F)C(=O)C1=O (stereo partly drawn) [Example 25, (3R)-3-(2-(2,6-difluoro-4-phosphonophenyl)-2-(4-ethyl-2,3-dioxopiperazine-1-carboxamido)acetamido)-2-hydroxy-3,4-dihydro-2H-benzo[e][1,2]oxaborinine-8-carboxylic acid]
pEC50 [1]: > 5.00
MIC (E. coli 901C): < 1 µg/mL
MIC (N. gonorrhoeae WHO K): 1 to 2 µg/mL (≈ 1.6 to 3.2 µM)

CC(=O)NC(C(=O)N[C@H]1Cc2cccc(C(=O)O)c2OB1O)c1ccc(P(=O)(O)O)cc1 (stereo partly drawn) [Example 26, (3R)-3-(2-acetamido-2-(4-phosphonophenyl)acetamido)-2-hydroxy-3,4-dihydro-2H-benzo[e][1,2]oxaborinine-8-carboxylic acid]
pEC50 [1]: 4.30 to 5.00
MIC (E. coli 901C): 8 to 16 µg/mL (≈ 17.3 to 34.6 µM)
MIC (N. gonorrhoeae WHO K): 16 to 32 µg/mL (≈ 34.6 to 69.2 µM)

CCC(=O)NC(C(=O)N[C@H]1Cc2cccc(C(=O)O)c2OB1O)c1ccc(P(=O)(O)O)cc1 (stereo partly drawn) [Example 27, (3R)-2-hydroxy-3-(2-(4-phosphonophenyl)-2-propionamidoacetamido)-3,4-dihydro-2H-benzo[e][1,2]oxaborinine-8-carboxylic acid]
pEC50 [1]: 4.30 to 5.00
MIC (E. coli 901C): 8 to 16 µg/mL (≈ 16.8 to 33.6 µM)
MIC (N. gonorrhoeae WHO K): 16 to 32 µg/mL (≈ 33.6 to 67.2 µM)

CC(C)C(=O)NC(C(=O)N[C@H]1Cc2cccc(C(=O)O)c2OB1O)c1ccc(P(=O)(O)O)cc1 (stereo partly drawn) [Example 28, (3R)-2-hydroxy-3-(2-isobutyramido-2-(4-phosphonophenyl)acetamido)-3,4-dihydro-2H-benzo[e][1,2]oxaborinine-8-carboxylic acid]
pEC50 [1]: > 5.00
MIC (E. coli 901C): 8 to 16 µg/mL (≈ 16.3 to 32.6 µM)
MIC (N. gonorrhoeae WHO K): 16 to 32 µg/mL (≈ 32.6 to 65.3 µM)

CC(C)(C)C(=O)NC(C(=O)N[C@H]1Cc2cccc(C(=O)O)c2OB1O)c1ccc(P(=O)(O)O)cc1 (stereo partly drawn) [Example 29, (3R)-2-hydroxy-3-(2-(4-phosphonophenyl)-2-pivalamidoacetamido)-3,4-dihydro-2H-benzo[e][1,2]oxaborinine-8-carboxylic acid]
pEC50 [1]: > 5.00
MIC (E. coli 901C): 8 to 16 µg/mL (≈ 15.9 to 31.7 µM)
MIC (N. gonorrhoeae WHO K): 16 to 32 µg/mL (≈ 31.7 to 63.5 µM)

O=C(O)c1cccc2c1OB(O)[C@@H](NC(=O)C(NC(=O)C1CC1)c1ccc(P(=O)(O)O)cc1)C2 (stereo partly drawn) [Example 30, (3R)-3-(2-(cyclopropanecarboxamido)-2-(4-phosphonophenyl)acetamido)-2-hydroxy-3,4-dihydro-2H-benzo[e][1,2]oxaborinine-8-carboxylic acid]
pEC50 [1]: > 5.00
MIC (E. coli 901C): 8 to 16 µg/mL (≈ 16.4 to 32.8 µM)
MIC (N. gonorrhoeae WHO K): 16 to 32 µg/mL (≈ 32.8 to 65.5 µM)

O=C(O)c1cccc2c1OB(O)[C@@H](NC(=O)C(NC(=O)C1CCCCC1)c1ccc(P(=O)(O)O)cc1)C2 (stereo partly drawn) [Example 31, (3R)-3-(2-(cyclohexanecarboxamido)-2-(4-phosphonophenyl)acetamido)-2-hydroxy-3,4-dihydro-2H-benzo[e][1,2]oxaborinine-8-carboxylic acid]
pEC50 [1]: > 5.00
MIC (E. coli 901C): 32 to 64 µg/mL (≈ 60.3 to 121 µM)
MIC (N. gonorrhoeae WHO K): 16 to 32 µg/mL (≈ 30.2 to 60.3 µM)

O=C(NC(C(=O)N[C@H]1Cc2cccc(C(=O)O)c2OB1O)c1ccc(P(=O)(O)O)cc1)c1ccccn1 (stereo partly drawn) [Example 32, (3R)-2-hydroxy-3-(2-(4-phosphonophenyl)-2-(picolinamido)acetamido)-3,4-dihydro-2H-benzo[e][1,2]oxaborinine-8-carboxylic acid]
pEC50 [1]: > 5.00
MIC (E. coli 901C): 2 to 4 µg/mL (≈ 3.81 to 7.62 µM)
MIC (N. gonorrhoeae WHO K): 4 to 8 µg/mL (≈ 7.62 to 15.2 µM)

CC(=O)N1CCC[C@@H]1C(=O)N[C@H](C(=O)N[C@H]1Cc2cccc(C(=O)O)c2OB1O)c1ccc(P(=O)(O)O)cc1 [Example 33, (3R)-3-(2-((R)-1-acetylpyrrolidine-2-carboxamido)-2-(4-phosphonophenyl)acetamido)-2-hydroxy-3,4-dihydro-2H-benzo[e][1,2]oxaborinine-8-carboxylic acid]
pEC50 [1]: > 5.00
MIC (E. coli 901C): 32 to 64 µg/mL (≈ 57.2 to 114 µM)
MIC (N. gonorrhoeae WHO K): 16 to 32 µg/mL (≈ 28.6 to 57.2 µM)

CS(=O)(=O)N1CCC[C@@H]1C(=O)N[C@H](C(=O)N[C@H]1Cc2cccc(C(=O)O)c2OB1O)c1ccc(P(=O)(O)O)cc1 [Example 34, (R)-2-hydroxy-3-((S)-2-((R)-1-(methylsulfonyl)pyrrolidine-2-carboxamido)-2-(4-phosphonophenyl)acetamido)-3,4-dihydro-2H-benzo[e][1,2]oxaborinine-8-carboxylic acid]
pEC50 [1]: 3.60 to 4.30
MIC (E. coli 901C): 8 to 16 µg/mL (≈ 13.4 to 26.9 µM)
MIC (N. gonorrhoeae WHO K): 16 to 32 µg/mL (≈ 26.9 to 53.8 µM)

CS(=O)(=O)N1CCC[C@@H]1C(=O)N[C@@H](C(=O)N[C@H]1Cc2cccc(C(=O)O)c2OB1O)c1ccc(P(=O)(O)O)cc1 [Example 35, (R)-2-hydroxy-3-((R)-2-((R)-1-(methylsulfonyl)pyrrolidine-2-carboxamido)-2-(4-phosphonophenyl)acetamido)-3,4-dihydro-2H-benzo[e][1,2]oxaborinine-8-carboxylic acid]
pEC50 [1]: > 5.00
MIC (E. coli 901C): 8 to 16 µg/mL (≈ 13.4 to 26.9 µM)
MIC (N. gonorrhoeae WHO K): 4 to 8 µg/mL (≈ 6.72 to 13.4 µM)
